Key:
human RORγ = target: T1, human RORγ (Homo sapiens, UniProt P51449); experiment: RORγ assay (GAL4-RORγ hybrid luciferase reporter, inverse-agonist activity); type: cell-based; details: GAL4-RORγ hybrid reporter cells, 23 hours
T1 sequence (P51449 269-508 limits assumed): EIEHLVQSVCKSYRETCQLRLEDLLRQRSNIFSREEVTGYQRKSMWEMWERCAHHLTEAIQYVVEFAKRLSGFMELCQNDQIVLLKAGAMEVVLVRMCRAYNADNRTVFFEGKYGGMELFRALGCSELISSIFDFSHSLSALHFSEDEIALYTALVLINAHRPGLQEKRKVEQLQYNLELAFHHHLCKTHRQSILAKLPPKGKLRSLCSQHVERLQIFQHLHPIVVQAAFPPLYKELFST
Procedure, shortened: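 Human cell line expressing GAL4-DBD/RORγ hybrid with UAS-driven luciferase, treated in triplicate with compound (0.4–200 nM or 2–1000 nM) for 23 h at 37 °C. Luminescence normalized to DMSO; viability measured in parallel by multiplex assay. IC50 for RORγ and viability by variable-slope nonlinear regression.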

NRF2 = experiment: AREc32 luciferase reporter assay; type: cell-based, human; details: EC2×: concentration required to increase GST ARE Luciferase reporter activity by 2-fold; AREc32 cells, 19 hours
Procedure, shortened: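 AREc32 cells (MCF-7 stably carrying eight rat GSTA2 ARE copies driving firefly luciferase) treated 19 h with compound (0.4–200 nM or 2–1000 nM), triplicate. Luminescence normalized to DMSO as fold-induction; variable-slope fit capped at 50-fold; EC2× = concentration giving 2-fold induction.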

hIL17 = experiment: IL-17 release from differentiated primary human T-cells (IL-17A HTRF assay); type: cell-based; details: inhibition of IL-17A levels; primary human CD4+ T cells differentiated into Th17 cells, 46-hour incubation
Procedure, shortened: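 Cryopreserved primary human CD4+ T cells were activated with anti-CD3/CD28 beads and driven to Th17 with TGF-β, IL-6, IL-23 and IL-1β in the presence of compound (2-500 nM or 4-1000 nM) for 46 h at 37° C. Supernatant IL-17A was quantified by HTRF against a standard curve and normalized to DMSO. IC50s came from variable-slope fits, with viability read by CyQuant.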

[1] = tested on: IFNγ-induced Nitric Oxide production; experiment: Nitric oxide production assay in RAW 264.7 mouse macrophages; type: cell-based; details: RAW264.7, suppression of IFNγ-induced NO production normalized to cell viability (WST-1), RAW 264.7, 24 hours IFNγ
Procedure, shortened: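 Cells pre-treated 2 h with compound (0.4-200 nM or 2-1000 nM) in RPMI 1640 + 0.5% FBS, then stimulated with recombinant mouse IFNγ for 24 h at 37 °C. Nitrite measured by Griess reagent, viability by WST-1; IC50 from NO suppression normalized to viability and to DMSO/IFNγ controls.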

SMILES | IC50 (human RORγ) [nM] | EC2x: concentration giving 2-fold induction of ARE luciferase reporter (NRF2) [nM] | IC50 (hIL17) [nM] | IC50 [1] [nM]
C[C@H](O)[C@]1(C)C(=O)C(C#N)=C[C@]2(C)C3=CC(=O)[C@]45OC(=O)[C@@]6(CCC(C)(C)C[C@H]64)CC[C@@]5(C)[C@]3(C)CC[C@@H]12 [Compound T48, (4R,4aR,6aR,6bS,8aS,12aR,12bS,14bS)-4-((S)-1-hydroxyethyl)-4,6a,6b, 11,11,14b-hexamethyl-3,13,16-trioxo-4,4a,5,6,6a,6b,7,8,10,11,12,12a,13,14b-tetradecahydro-3H,9H-12b,8a-(epoxymethano)picene-2-carbonitrile] | 162 | 3 | 13 | 1.2
Cc1noc([C@]23CCC(C)(C)C[C@H]2[C@H]2C(=O)C=C4[C@@]5(C)[C@H]6O[C@@]6(C#N)C(=O)[C@@](C)(O)[C@@H]5CC[C@@]4(C)[C@]2(C)CC3)n1 [Compound T49, (1 aR,3S,3aR,5aS,5bR,7aS,11aS,11bR,13bS,13cR)-3-hydroxy-3,5a,5b, 10,10,13b-hexamethyl-7a-(3-methyl-1,2,4-oxadiazol-5-yl)-2,12-dioxo-3,3a,4,5,5a,5b,6,7,7a,8,9,10,11,11a,11b,12,13b,13c-octadecahydropiceno[1,2-b]oxirene-1a(2H)-carbonitrile] | 608 | 244 | 18 | 37.5
CC1(C)CC[C@@]23CC[C@@]4(C)[C@]5(C)CC[C@@H]6[C@@](C)(C5=CC(=O)[C@]4(OC2=O)[C@@H]3C1)[C@H]1O[C@@]1(C#N)C(=O)[C@@]6(C)O [Compound T50, (1aR,3S,3aR,5aR,5bS,7aS,11aR,11bS,13bS,13cR)-3-hydroxy-3,5a,5b,10,10,13b-hexamethyl-2,12,15-trioxo-3,3a,4,5,5a,6,7,9,10,11,11a,12,13b,13c-tetradecahydro-2H, 8H-11b,7a-(epoxymethano)piceno[1,2-b]oxirene-1a(5bH)-carbonitrile] | 1040 | 162 | 11 | 65.4
CC1(C)CC[C@]2(NC(=O)C(C)(F)F)CC[C@]3(C)[C@H](C(=O)C=C4[C@@]5(C)[C@H]6O[C@@]6(C#N)C(=O)[C@@](C)(O)[C@@H]5CC[C@]43C)[C@@H]2C1 [Compound T51, N-((1aR,3S,3aR,5aS,5bR,7aS,11aS,11bR,13bS,13cR)-1a-cyano-3-hydroxy-3,5a,5b,10,10,13b-hexamethyl-2,12-dioxo-1a,3,3a,4,5,5a,5b,6,7,8,9,10,11,11a,11b,12,13b,13c-octadecahydropiceno[1,2-b]oxiren-7a(2H)-yl)-2,2-difluoropropanamide] | 1690 | 840 | 139 | 119

Reference: US11584775B2, “C4-modified oleanolic acid derivatives for inhibition of IL-17 and other uses” (REATA PHARMACEUTICALS, INC., priority 2015, dated 2023)
